Data from patent publication US6222043A, “Methods of preparing novel dipeptide compounds or pharmaceutically acceptable salts thereof” (Japan Energy Corporation, priority 1995, dated 2001).

Test: Pharmacokinetics in rats, intravenous or intraduodenal administration
Type: in vivo
Conditions: rat
Experimental: Metabolic characteristics of the dipeptide compounds of the present invention was evaluated using rats. Tested compounds dissolved in vehicle was administered intraduodenally or intravenously. After administration, blood was taken and the concentration of residual tested compound in plasma was analyzed. The dosage of the tested compound was described in table 3.

Structure (SMILES)	AUC (i.d., 20.0 mg/kg) [µg/mL/min]	F (bioavailability on intraduodenal administration) (i.d., 20.0 mg/kg) [%]	AUC (i.v., 10.0 mg/kg) [µg/mL/min]	MRT (i.v., 10.0 mg/kg) [min]	t1/2 (λ) (i.v., 10.0 mg/kg) [min]	AUC (i.d., 10.0 mg/kg) [µg/mL/min]	F (bioavailability on intraduodenal administration) (i.d., 10.0 mg/kg) [%]
Cc1c(O)cccc1C(=O)N[C@@H](Cc1ccccc1)[C@H](O)C(=O)N1CSC[C@H]1C(=O)NC(C)(C)C [Compound of example 21, (R)-N-tert-butyl-3-[(2S,3S)-2-hydroxy-3-[3-hydroxy-2-methylbenzoyl]amino-4-phenylbutanoyl]-1,3-thiazolidine-4-carboxamide]	101	45.41	111	31.7	35.98		
Cc1c(O)cccc1C(=O)N[C@@H](Cc1ccccc1)[C@H](O)C(=O)N1CSC(C)(C)[C@H]1C(=O)NC(C)(C)C [Compound of example 22, (R)-N-tert-butyl-3-[(2S,3S)-2-hydroxy-3-[3-hydroxy-2-methylbenzoyl]amino-4-phenylbutanoyl]-5,5-dimethyl-1,3-thiazolidine-4-carboxamide]	106	47.53	111	22.9	23.89		
CCc1c(O)cccc1C(=O)N[C@@H](Cc1ccccc1)[C@H](O)C(=O)N1CSC[C@H]1C(=O)NC(C)(C)C [Compound of example 31, (R)-N-tert-butyl-3-[(2S,3S)-2-hydroxy-3-(2-ethyl-3-hydroxybenzoyl)amino-4-phenylbutanoyl]-1,3-thiazolidine-4-carboxamide]			276	96.0	73.81	99	36.24
Cc1ccccc1CNC(=O)[C@@H]1CSCN1C(=O)[C@@H](O)[C@H](Cc1ccccc1)NC(=O)c1cccc(O)c1C [Compound of example 34, (R)-N-(2-methylbenzyl)-3-[(2S,3S)-3-(3-hydroxy-2-methylbenzoyl)amino-2-hydroxy-4-phenylbutanoyl]-1,3-thiazolidine-4-carboxamide]			124	31.9	40.51	40	32.26
CSC[C@H](NC(=O)COc1cccc2cnccc12)C(=O)N[C@@H](Cc1ccccc1)[C@H](O)C(=O)N1CSC[C@H]1C(=O)NC(C)(C)C [KNI-272, (R)-3-[(2S,3S)-3-(N-(isoquinoline-5-yloxy)acetylmethylthio-L-alanyl)amino-2-hydroxy-4-phenylbutanoyl]1,3-thiazolidine-4-N'-t-butylcarboxamide, reference compound]			224	23.2	25.57	98	43.20
CCc1c(O)cccc1C(=O)N[C@@H](Cc1ccccc1)[C@H](O)C(=O)N1CSC(C)(C)[C@H]1C(=O)NC(C)(C)C [Compound of example 36, (R)-N-tert-butyl-3-[(2S,3S)-3-(2-ethyl-3-hydroxybenzoyl)amino-2-hydroxy-4-phenylbutanoyl]-5,5-dimethyl-1,3-thiazolidine-4-carboxamide]			174	88.9	83.90	64	37.01
Cc1ccccc1CNC(=O)[C@H]1N(C(=O)[C@@H](O)[C@H](Cc2ccccc2)NC(=O)c2cccc(O)c2C)CSC1(C)C [Compound of example 37, (R)-N-(2-methylbenzyl)-3-[(2S,3S)-3-(3-hydroxy-2-methylbenzoyl)amino-2-hydroxy-4-phenylbutanoyl]-5,5-dimethyl-1,3-thiazolidine-4-carboxamide]			131	74.7	92.63	55	41.55
